The results in this text go back to US20160235806A1, “Novel Peptide Compound for Inhibiting Restenosis and Promoting Re-Endothelialization and Method for Preparing the Same” (Chonnam National University Hospital, priority 2014, published 2016).

The test system of the experiment is vascular smooth muscle cell (SMC). As to the kind of experiment: Effect on proliferation of vascular smooth muscle cell (SMC), XTT assay. The following applies: 1 uM; 1, 4, and 7 days; vs non-treated control that continuously grew until 7 days. The class given is cell-based. The procedure:
As cells used in a cell culture, the vascular smooth muscle cell (SMC) which is a smooth muscle cell, and the human umbilical vein endothelial cell (HUVEC) which is the cell for promoting vascular re-endothelialization were purchased from Korea Cell Line Bank, respectively. The cell culture was performed by culturing the vascular smooth muscle cell (SMC) and the human umbilical vein endothelial cell (HUVEC) in Dulbecoco's modified eagle medium (DMEM) with 10% fetal bovine serum (FBS) under conditions of 37° C. and 5% CO2. […]
5×10^4 of SMC cells cultured according to Example 2 were cultured in the 24-well cell culture plate and then treated with 1 uM of the peptide compound prepared by Example 2 (hereinafter, referred to as ‘EVR-P’). […] After the reaction, 200 ul of the culture medium was transferred from each well to a 96 well cell culture dish, and degree of color change was measured from absorbance at a 450 nm wavelength by a spectroscopy.
5×10^4 of SMC cells cultured according to Example 2 were cultured in the 24-well cell culture plate and then treated with 1 uM of the known Everolimus (EVR)(LC Laboratories). […] After the reaction, 200 ul of the culture medium was transferred from each well to the 96 well cell culture dish, and degree of color change was measured from absorbance at a 450 nm wavelength by a spectroscopy.
A general note: Tetrazolium dyes change colour on reduction, which living cells bring about.

In the case of `CO[C@H]1C[C@@H]2CC[C@@H](C)[C@@](O)(O2)C(=O)C(=O)N2CCCC[C@H]2C(=O)O[C@H]([C@H](C)C[C@@H]2CC[C@@H](OCCO)[C@H](OC)C2)CC(=O)[C@H](C)/C=C(\C)[C@@H](O)[C@@H](OC)C(=O)[C@H](C)C[C@H](C)/C=C/C=C/C=C/1C` [EVR, Everolimus], the “SMC cell proliferation (XTT, absorbance at 450 nm)” value is on record as “cell proliferation was inhibited”.
